The text below walks through data of patent US20200045967A1, “NOVEL TRIAZOLE DERIVATIVES” (Bayer CropScience Aktiengesellschaft, priority 2017, published 2020).

One data set has as its system Botrytis cinerea. Briefly: Example G1: in vivo preventive test on Botrytis cinerea (grey mould), comparison. To be noted: rate of application 500 ppm; gherkin; evaluated 4 to 5 days after inoculation. On the procedure:
Young plants of gherkin were treated by spraying the active ingredient prepared as described above. Control plants were treated only with an aqueous solution of acetone/dimethyl sulfoxide/Tween®. After 24 hours, the plants were contaminated by spraying the leaves with an aqueous suspension of Botrytis cinerea spores.

The next data set concerns Puccinia recondita. Briefly: Example G2: in vivo preventive test on Puccinia recondita (brown rust on wheat), comparison. To be noted: evaluated 11 days after inoculation. Here is the method:
Young plants of wheat were treated by spraying the active ingredient prepared as described above. Control plants were treated only with an aqueous solution of acetone/dimethyl sulfoxide/Tween®. After 24 hours, the plants were contaminated by spraying the leaves with an aqueous suspension of Puccinia recondita spores.

For a further data set, the system named is Fusarium culmorum. Briefly: Example G3: in vitro test for the calculation of the ED50-value with microorganisms, Fusarium culmorum. Format: cell-based. The note with it: liquid culture, spore suspension, 4 to 7 days incubation, spectrometric measurement of mycelium growth. Here is the method:
• Solvent: DMSO • Culture medium: 14.6 g anhydrous D-glucose (VWR), 7.1 g mycological peptone (Oxoid), 1.4 g granulated yeast extract (Merck), supplemented with water to a total volume of 1 liter • Inoculum: spore suspension
Fungicides were solubilized in DMSO and the solution used to prepare the required range of concentrations. The final concentration of DMSO used in the assay was <1% by weight.
A spore suspension was prepared and diluted to the desired spore density.
Fungicides were evaluated for their ability to inhibit spore germination and mycelium growth in liquid culture assay. The compounds were added in the desired concentration to the culture medium with spores. After 4 to 7 days incubation, fungi-toxicity of compounds was determined by spectrometric measurement of mycelium growth. Inhibition of fungal growth was determined by comparing the absorbance values in wells containing the fungicides with the absorbance in control wells without fungicides.

In a further data set the test system is Pyricularia oryzae. It is filed as cell-based. The note with it: liquid culture, spore suspension, 4 to 7 days incubation, spectrometric measurement of mycelium growth.
Data set [1] deals with Colletotrichum lindemuthianum. Briefly: Example G3: in vitro test for the calculation of the ED50-value with microorganisms, Colletotrichum lindemuthianum. It is filed as cell-based. To be noted: liquid culture, spore suspension, 4 to 7 days incubation, spectrometric measurement of mycelium growth.
Another data set deals with Sphaerotheca fuliginea. Briefly: Example G4: in vivo preventive Sphaerotheca test (cucumbers). The note with it: evaluated 7 days after inoculation. Here is the method:
Solvent: 24.5 parts by weight of acetone • 24.5 parts by weight of dimethylacetamide Emulsifier: 1 part by weight of alkylaryl polyglycol ether To produce a suitable preparation of active compound, 1 part by weight of active compound is mixed with the stated amounts of solvent and emulsifier, and the concentrate is diluted with water to the desired concentration. To test for preventive activity, young plants are sprayed with the preparation of active compound at the stated rate of application. After the spray coating has dried on, the plants are inoculated with an aqueous spore suspension of Sphaerotheca fuliginea.

Data set [2] concerns Septoria tritici. Briefly: Example G5: in vivo preventive Septoria tritici test (wheat). The note with it: rate of application 500 ppm, evaluated 21 days after inoculation. On the procedure: Solvent: 49 parts by weight of N,N-dimethylacetamide Emulsifier: 1 part by weight of alkylaryl polyglycol ether To produce a suitable preparation of active compound, 1 part by weight of active compound is mixed with the stated amounts of solvent and emulsifier, and the concentrate is diluted with water to the desired concentration. To test for preventive activity, young plants are sprayed with the preparation of active compound or active compound combination at the stated rate of application. After the spray coating has been dried, the plants are sprayed with a spore suspension of Septoria tritici.

Data set [3] relates to Septoria tritici. Briefly: Example G6: in vivo curative Septoria tritici test (wheat). To be noted: sprayed 48 hours after the incubation, rate of application 500 ppm, evaluated 21 days after inoculation.
The test system of data set [4] is Septoria tritici. Briefly: Example G7: in vivo 5 days preventive Septoria tritici test (wheat). To be noted: inoculated 5 days after spraying, rate of application 500 ppm, evaluated 21 days after inoculation. On the procedure:
Solvent: 49 parts by weight of N,N-dimethylacetamide Emulsifier: 1 part by weight of alkylaryl polyglycol ether To produce a suitable preparation of active compound, 1 part by weight of active compound is mixed with the stated amounts of solvent and emulsifier, and the concentrate is diluted with water to the desired concentration. To test for preventive and long-lasting activity, young plants are sprayed with a preparation of active compound or active compound combination at the stated rate of application.

A short description of data set [5]: Log P by HPLC on reversed phase columns (EEC directive 79/831 Annex V.A8). Format: physicochemical. To be noted: method [a]: LC-UV, acidic range, 0.1% formic acid in water and acetonitrile. On the procedure:
If more than one Log P value is available within the same method, all the values are given and separated by “+”. Calibration was done with straight-chain alkan2-ones (with 3 to 16 carbon atoms) with known Log P values (measurement of Log P values using retention times with linear interpolation between successive alkanones). Lambda-max-values were determined using UV-spectra from 200 nm to 400 nm and the peak values of the chromatographic signals.

Regarding `CSc1ccc(Oc2ccc(C(C)(O)Cn3cncn3)c(C(F)(F)F)c2)cc1` (stereo not shown) [Comparative compound, reference compound], the Efficacy in % with Botrytis cinerea is reported as 69%; in the data set with Puccinia recondita (rate of application 100 ppm), 25%; in the data set with Puccinia recondita (rate of application 500 ppm) it was 88%; in the data set on Sphaerotheca fuliginea (rate of application 10 ppm), 28%; with Sphaerotheca fuliginea (rate of application 100 ppm), 100%; with Septoria tritici [2], 22%. In addition, the Efficacy in % is on record as 57% with Septoria tritici [3] and 29% in the data set on Septoria tritici [4]. In addition, in the data set with Fusarium culmorum, the “Fusarium culmorum ED50 value in ppm” value is reported as 2.6 ppm. In addition, the “Pyricularia oryzae ED50 value in ppm” value in the data set with Pyricularia oryzae stood at 5.6 ppm. For the same compound, in [1], the “Colletotrichum lindemuthianum ED50 value in ppm” value is on record as 0.83 ppm.

On to `O=Cc1ccc(Oc2ccc(C(O)Cn3cncn3)c(C(F)(F)F)n2)cc1` (stereo not shown) [Compound I-01, 4-[[5-[1-hydroxy-2-(1,2,4-triazol-1-yl)ethyl]-6-(trifluoromethyl)-2-pyridyl]oxy]benzaldehyde], for which the chromatographic logP in data set [5] (compounds of formula (I)) turned out to be 1.91.

For the compound `CSc1ccc(Oc2ccc(C(O)Cn3cncn3)c(C(F)(F)F)n2)cc1` (stereo not shown) [Compound I-02, 1-[6-(4-methylsulfanylphenoxy)-2-(trifluoromethyl)-3-pyridyl]-2-(1,2,4-triazol-1-yl)ethanol], in data set [5] (compounds of formula (I)), the chromatographic logP came out at 2.59.

`CSc1ccc(Oc2ccc(C(C)(O)Cn3cncn3)c(C(F)(F)F)n2)cc1` (stereo not shown) [Compound I-03, 2-[6-(4-methylsulfanylphenoxy)-2-(trifluoromethyl)-3-pyridyl]-1-(1,2,4-triazol-1-yl)propan-2-ol] gave a chromatographic logP in data set [5] (compounds of formula (I)) of 2.74. Moreover, the Efficacy in % is 90% with Botrytis cinerea; 65% in the data set with Puccinia recondita (rate of application 100 ppm); 88% in the data set on Puccinia recondita (rate of application 500 ppm); 78% with Sphaerotheca fuliginea (rate of application 10 ppm); 100% in the data set with Sphaerotheca fuliginea (rate of application 100 ppm); 78% in the data set with Septoria tritici [2]. Further, the Efficacy in % was determined as 93% in the data set with Septoria tritici [3] and 71% in the data set on Septoria tritici [4]. The “Fusarium culmorum ED50 value in ppm” value with Fusarium culmorum was 0.83 ppm. In addition, the “Pyricularia oryzae ED50 value in ppm” value in the data set with Pyricularia oryzae was found to be 1.7 ppm. Moreover, the “Colletotrichum lindemuthianum ED50 value in ppm” value in data set [1] is on record as 0.38 ppm.

Turning to `ON=Cc1ccc(Oc2ccc(C(O)Cn3cncn3)c(C(F)(F)F)n2)cc1` (stereo not shown) [Compound I-04, 4-[[5-[1-hydroxy-2-(1,2,4-triazol-1-yl)ethyl]-6-(trifluoromethyl)-2-pyridyl]oxy]benzaldehyde Oxime], the chromatographic logP in [5] (compounds of formula (I)) was 2.26.

As to `CC(=O)c1ccc(Oc2ccc(C3OCCO3)cc2)nc1C(F)(F)F` [Compound V-01, 1-[6-[4-(1,3-dioxolan-2-yl)phenoxy]-2-(trifluoromethyl)-3-pyridyl]ethanone], in data set [5] (compounds of formula (V)), the chromatographic logP was 2.98.

Regarding `CSc1ccc(Oc2ccc(C(C)=O)c(C(F)(F)F)n2)cc1` [Compound V-02, 1-[6-(4-methylsulfanylphenoxy)-2-(trifluoromethyl)-3-pyridyl]ethanone], the chromatographic logP in [5] (compounds of formula (V)) turned out to be 3.7.

On to `O=Cc1ccc(Oc2ccc(C(=O)Cn3cncn3)c(C(F)(F)F)n2)cc1` [VII-01, 4-[[5-[2-(1,2,4-triazol-1-yl)acetyl]-6-(trifluoromethyl)-2-pyridyl]oxy]benzaldehyde], for which the chromatographic logP in data set [5] (compounds of formula (VII)) was 2.12.

Regarding `CSc1ccc(Oc2ccc(C(=O)Cn3cncn3)c(C(F)(F)F)n2)cc1` [VII-02, 1-[6-(4-methylsulfanylphenoxy)-2-(trifluoromethyl)-3-pyridyl]-2-(1,2,4-triazol-1-yl)ethanone], in data set [5] (compounds of formula (VII)), the chromatographic logP amounted to 2.92.

Compound `C#Cc1ccc(Oc2ccc(C(=O)Cn3cncn3)c(C(F)(F)F)n2)cc1` [VII-04, 1-[6-(4-ethynylphenoxy)-2-(trifluoromethyl)-3-pyridyl]-2-(1,2,4-triazol-1-yl)ethanone] showed a chromatographic logP in data set [5] (compounds of formula (VII)) of 2.63.

The term chromatographic logP denotes lipophilicity estimated from chromatographic retention. High values mean a more lipophilic compound, low ones a more hydrophilic compound.
